Reference: ChEMBL document CHEMBL3046469, “Fungicidal Activities of 2-(Substituted Phenoxymethyl)phenyl-2-methoxyiminoacaetamide Derivatives” (1998)

Assays:
Assay type in all cases: functional
Pyricularia oryzae [1] = assay: Fungicidal activity against Magnaporthe oryzae assessed as rice blast disease control at 2 ppm foliar application for 24 hr before inoculation at 27 +/- 2 degC measured after 5 days by preventive manner
Podosphaera fuliginea [2] = assay: Fungicidal activity against Podosphaera fuliginea assessed as cucumber powdery mildew control at 2 ppm foliar application 24 hr before inoculation at 23 +/- 2 degC by preventive manner
Thanatephorus cucumeris [3] = assay: Fungicidal activity against Thanatephorus cucumeris assessed as rice sheath blight disease control at 31.3 ppm foliar application for 24 hr before inoculation at 26 +/- 2 degC measured after 5 days by preventive manner
[4] = system: Pseudoperonospora cubensis; assay: Fungicidal activity against Pseudoperonospora cubensis assessed as cucumber downy mildew disease control at 7.8 ppm foliar application 24 hr before inoculation onto the abaxial(untreated) surface of leaf by preventive manner
Botrytis cinerea [5] = assay: Fungicidal activity against Botryotinia fuckeliana assessed as cucumber gray mold disease control at 2 ppm foliar application […] at 22 +/- 2 degC by preventive manner
[6] = system: Pseudoperonospora cubensis; assay: Fungicidal activity against Pseudoperonospora cubensis assessed as cucumber downy mildew disease control at 2 ppm foliar application 24 hr before inoculation onto the adaxial(treated) surface of leaf by preventive manner
[7] = system: Blumeria graminis f. sp. tritici; assay: Fungicidal activity against Blumeria graminis f. sp. tritici assessed as wheat powdery mildew disease control at 7.8 ppm foliar application 48 24 hr before inoculation by preventive manner
Pyricularia oryzae [8] = assay: Fungicidal activity against Magnaporthe oryzae assessed as rice blast disease control at 31.3 ppm foliar application for 24 hr before inoculation at 27 +/- 2 degC measured after 5 days by preventive manner
Podosphaera fuliginea [9] = assay: Fungicidal activity against Podosphaera fuliginea assessed as cucumber powdery mildew control at 7.8 ppm foliar application 24 hr before inoculation at 23 +/- 2 degC by preventive manner
[10] = system: Pseudoperonospora cubensis; assay: Fungicidal activity against Pseudoperonospora cubensis assessed as cucumber downy mildew disease control at 31.3 ppm foliar application 24 hr before inoculation onto the adaxial(treated) surface of leaf by preventive manner
[11] = system: Pseudoperonospora cubensis; assay: Fungicidal activity against Pseudoperonospora cubensis assessed as cucumber downy mildew disease control at 31.3 ppm foliar application 24 hr before inoculation onto the abaxial(untreated) surface of leaf by preventive manner
Botrytis cinerea [12] = assay: Fungicidal activity against Botryotinia fuckeliana assessed as cucumber gray mold disease control at 7.8 ppm foliar application […] at 22 +/- 2 degC by preventive manner
Podosphaera fuliginea [13] = assay: Fungicidal activity against Podosphaera fuliginea assessed as cucumber powdery mildew control at 125 ppm foliar application 24 hr after inoculation at 23 +/- 2 degC by curative manner
Botrytis cinerea [14] = assay: Fungicidal activity against Botryotinia fuckeliana assessed as cucumber gray mold disease control at 125 ppm foliar application […] at 22 +/- 2 degC by curative manner
[15] = system: Blumeria graminis f. sp. tritici; assay: Fungicidal activity against Blumeria graminis f. sp. tritici assessed as wheat powdery mildew disease control at 125 ppm foliar application for 48 hr before inoculation by preventive manner
Pyricularia oryzae [16] = assay: Fungicidal activity against Magnaporthe oryzae assessed as rice blast disease control at 125 ppm foliar application for 24 hr after inoculation at 27 +/- 2 degC measured after 5 days by curative manner
Pyricularia oryzae [17] = assay: Fungicidal activity against Magnaporthe oryzae assessed as rice blast disease control at 125 ppm foliar application for 24 hr before inoculation at 27 +/- 2 degC measured after 5 days by preventive manner
Botrytis cinerea [18] = assay: Fungicidal activity against Botryotinia fuckeliana assessed as cucumber gray mold disease control at 125 ppm foliar application […] at 22 +/- 2 degC by preventive manner
Podosphaera fuliginea [19] = assay: Fungicidal activity against Podosphaera fuliginea assessed as cucumber powdery mildew control at 125 ppm foliar application 24 hr before inoculation at 23 +/- 2 degC by preventive manner
[20] = system: Blumeria graminis f. sp. tritici; assay: Fungicidal activity against Blumeria graminis f. sp. tritici assessed as wheat powdery mildew disease control at 125 ppm foliar application for 48 hr after inoculation by curative manner
Pyricularia oryzae [21] = assay: Fungicidal activity against Magnaporthe oryzae assessed as rice blast disease control at 7.8 ppm foliar application for 24 hr before inoculation at 27 +/- 2 degC measured after 5 days by preventive manner
[22] = system: Blumeria graminis f. sp. tritici; assay: Fungicidal activity against Blumeria graminis f. sp. tritici assessed as wheat powdery mildew disease control at 2 ppm foliar application for 48 hr before inoculation by preventive manner
[23] = system: Pseudoperonospora cubensis; assay: Fungicidal activity against Pseudoperonospora cubensis assessed as cucumber downy mildew disease control at 125 ppm foliar application 24 hr before inoculation onto the abaxial(untreated) surface of leaf by preventive manner
Thanatephorus cucumeris [24] = assay: Fungicidal activity against Thanatephorus cucumeris assessed as rice sheath blight disease control at 7.8 ppm foliar application for 24 hr before inoculation at 26 +/- 2 degC measured after 5 days by preventive manner
Thanatephorus cucumeris [25] = assay: Fungicidal activity against Thanatephorus cucumeris assessed as rice sheath blight disease control at 125 ppm foliar application for 24 hr before inoculation at 26 +/- 2 degC measured after 5 days by preventive manner
Podosphaera fuliginea [26] = assay: Fungicidal activity against Podosphaera fuliginea assessed as cucumber powdery mildew control at 7.8 ppm foliar application 24 hr after inoculation at 23 +/- 2 degC by curative manner
Podosphaera fuliginea [27] = assay: Fungicidal activity against Podosphaera fuliginea assessed as cucumber powdery mildew control at 31.3 ppm foliar application 24 hr before inoculation at 23 +/- 2 degC by preventive manner
Botrytis cinerea [28] = assay: Fungicidal activity against Botryotinia fuckeliana assessed as cucumber gray mold disease control at 31.3 ppm foliar application […] at 22 +/- 2 degC by preventive manner
[29] = system: Pseudoperonospora cubensis; assay: Fungicidal activity against Pseudoperonospora cubensis assessed as cucumber downy mildew disease control at 125 ppm foliar application 24 hr before inoculation onto the adaxial(treated) surface of leaf by preventive manner
[30] = system: Blumeria graminis f. sp. tritici; assay: Fungicidal activity against Blumeria graminis f. sp. tritici assessed as wheat powdery mildew disease control at 31.3 ppm foliar application for 48 hr before inoculation by preventive manner
[31] = system: Pseudoperonospora cubensis; assay: Fungicidal activity against Pseudoperonospora cubensis assessed as cucumber downy mildew disease control at 7.8 ppm foliar application 24 hr before inoculation onto the adaxial(treated) surface of leaf by preventive manner

Row | SMILES | Activity (Botrytis cinerea [5]) [%] | Activity (Podosphaera fuliginea [13]) [%] | Activity (Botrytis cinerea [14]) [%] | Activity [15] [%] | Activity (Pyricularia oryzae [16]) [%] | Activity (Pyricularia oryzae [17]) [%] | Activity (Botrytis cinerea [18]) [%] | Activity (Podosphaera fuliginea [19]) [%] | Activity [23] [%] | Activity (Thanatephorus cucumeris [25]) [%] | other results
1 | CNC(=O)/C(=N/OC)c1ccccc1COc1cccc(-c2ccccc2)c1 | 90 |  |  |  |  |  |  |  |  |  | Activity (Pyricularia oryzae [1]): 90%; Activity (Podosphaera fuliginea [2]): 90%; Activity (Thanatephorus cucumeris [3]): 90%; Activity [4]: 90%; Activity [6]: 90%; Activity [7]: 90%
2 | CNC(=O)/C(=N/OC)c1ccccc1COc1ccc(OC(C)C)cc1 |  |  |  |  |  |  |  |  |  |  | Activity (Pyricularia oryzae [8]): 90%; Activity (Podosphaera fuliginea [9]): 90%; Activity [10]: 90%; Activity (Thanatephorus cucumeris [3]): 90%; Activity [11]: 90%; Activity (Botrytis cinerea [12]): 90%; Activity [7]: 90%
3 | CNC(=O)/C(=N\OC)c1ccccc1COc1ccc(Cl)cc1 |  | <90 | <90 | 90 | <90 | <90 | <90 | 90 |  |  | Activity [20]: <90%
4 | CNC(=O)/C(=N/OC)c1ccccc1COc1cc(C)cc(C)c1C | 90 |  |  |  |  |  |  |  | 90 |  | Activity (Pyricularia oryzae [21]): 90%; Activity (Podosphaera fuliginea [2]): 90%; Activity [22]: 90%; Activity (Thanatephorus cucumeris [24]): 90%; Activity [6]: 90%
5 | CNC(=O)/C(=N/OC)c1ccccc1COc1ccc(C)cc1C | 90 |  |  |  |  | 90 |  |  | 90 |  | Activity (Podosphaera fuliginea [9]): 90%; Activity [22]: 90%; Activity (Thanatephorus cucumeris [24]): 90%; Activity [6]: 90%
6 | CNC(=O)/C(=N\OC)c1ccccc1COc1ccccc1 |  | <90 | <90 | 90 | <90 | <90 | <90 | 90 |  |  | Activity [20]: <90%
7 | CNC(=O)/C(=N/OC)c1ccccc1COc1ccccc1OC(C)C |  |  |  | <90 |  | 90 | <90 | 90 | <90 | <90 | Activity [10]: 90%
8 | CO/N=C(/C(=O)NOC)c1ccccc1COc1cc(C)ccc1C |  |  | <90 |  | <90 | 90 | 90 | <90 |  |  | Activity (Podosphaera fuliginea [26]): 90%
9 | CNC(=O)/C(=N\OC)c1ccccc1COc1cccc(OC(C)C)c1 |  | 90 | <90 | <90 | <90 | 90 | 90 |  |  |  | Activity (Podosphaera fuliginea [27]): 90%; Activity [20]: 90%
10 | CO/N=C(/C(=O)NN)c1ccccc1COc1cc(C)ccc1C |  | <90 |  |  | <90 | 90 | <90 | 90 |  |  | 
11 | CNC(=O)/C(=N/OC)c1ccccc1COc1ccc(C#N)cc1 |  |  |  | 90 |  | <90 |  | <90 | 90 | <90 | Activity (Botrytis cinerea [28]): 90%; Activity [10]: 90%
12 | CNC(=O)/C(=N/OC)c1ccccc1COc1c(Cl)cccc1Cl |  |  |  |  |  | 90 | 90 | <90 | <90 | <90 | Activity [29]: <90%; Activity [30]: 90%
13 | CNC(=O)/C(=N/OC)c1ccccc1COc1ccc(Cl)cc1Cl | 90 |  |  |  |  |  |  |  |  | <90 | Activity (Pyricularia oryzae [8]): 90%; Activity (Podosphaera fuliginea [2]): 90%; Activity [22]: 90%; Activity [11]: 90%; Activity [31]: 90%
